Target: T1, LXRα (Homo sapiens, UniProt Q13133)
T1 construct: were made by cloning the appropriate full-length cDNAs into the pBacPakhis1 vector; poly-His (pBacPakhis1) (N); made in house; host or cells: Sf9 insect cells (baculovirus), crude lysate
Experiment: Scintillation proximity assay (SPA), competition with 3H-24,25-epoxycholesterol
Assay type: binding
Details: average Ki with respect to LXR α
Experimental: The SPA assay measures the radioactive signal generated by the binding of ^3H-24,25-epoxycholesterol to LXRα or LXRβ. The basis of the assay is the use of SPA beads containing a scintillant, such that when binding to the receptor brings the labeled ligand into proximity with the bead, the energy from the label stimulates the scintillant to emit light. The light is measured using a standard microplate scintillation reader. The ability of a ligand to bind to a receptor can be measured by assessing the degree to which the compound can compete off a radiolabelled ligand with known affinity for the receptor.
1. Label: ^3H-24,25-epoxy-cholesterol (Amersham)
2. LXRα lysate: Baculovirus expressed LXRα/RXR heterodimer with RXR having a 6-HIS tag produced as a crude lysate
4. SPA beads: Ysi copper His-tag SPA beads (Amersham)
Baculovirus expression plasmids for human RXR α (accession No NM_002957), LXR a (accession No U22662), LXR β (accession No U07132) were made by cloning the appropriate full-length cDNAs into the pBacPakhis1 vector (Clontech, CA) following standard procedures. Insertion of the cDNAs into the pBAcPakhis1 vector polylinker created an in frame fusion to the cDNA to an N-terminal poly-His tag present in pBacPakhis1. Correct cloning was confirmed by restriction mapping, and/or sequencing.
Cell lysates were prepared by infecting healthy, Sf9 insect cells at a density of approximately 1.25×10^6/ml at 27° C., in a total volume of 500 mL per 1 L sized spinner flasks, cultured under standard conditions. To prepare LXRα lysate, insect cells were co-transfected with the LXR α expression cassette at an M.O.I of 0.5 to 0.8 and with the RXR expression cassette at a M.O.I. of approximately 1.6. To prepare LXRβ lysate, insect cells were co-transfected with the LXR β expression cassette at an M.O.I of approximately 1.6 and with the RXR expression cassette at a M.O.I. of approximately 1.6. In both cases cells were incubated for 48 hours at 27° C. with constant shaking prior to harvesting.
After incubation, cells were harvested by centrifugation and pelleted. Cell pellets were resuspended in two volumes of ice-cold freshly prepared extraction buffer (20 mM Tris pH 8.0, 10 mM Imidazole, 400 mM NaCl, containing one EDTA free protease inhibitor tablet (Roche Catalog No: 1836170) per 10 ml of extraction buffer).
Cells were homogenized slowly on ice using a Douncer to achieve 80-90% cell lysis. The homogenate was centrifuged in a pre-chilled rotor (Ti50 or Ti70, or equivalent) at 45,000 rpm for 30 minutes at 4° C. Aliquots of the supernatant were frozen on dry ice and stored frozen at −80° C. until quantification and quality control. Aliquots of the lysates were tested in the SPA assay to ensure lot to lot consistency, and via SDS-PAGE analysis after purification using Ni-NTA Resin (Qiagen) and adjusted for protein concentration and expression level prior to use in screening assays.
[^3H] 24,25 Epoxycholesterol (EC) solution: For a single 384-well plate (or 400 wells), 21 μL of [^3H] EC (specific activity 76.5 Ci/mmol, concentration 3.2 mCi/mL) was added to 4.4 mL of 2×SPA buffer to provide for a final concentration of 200 nM. For each additional 384-well plate, an additional 19.1 μL of [^3H] EC was added to 4.0 mL of additional 2×SPA buffer. The final concentration of [^3H] EC in the well was 50 nM.
LXRα lysate (prepared as above) was diluted with protein lysate dilution buffer. 1400 μL of diluted LXRα lysate was prepared per 384-well plate, (or 200 wells) and 1120 μL of diluted LXRα lysate was prepared for each additional 384-well plate.
SPA bead solution: For a 384-well plate (or 400 wells), 3.75 mL of 2×SPA buffer w/o EDTA, 2.25 mL of H2O, and 1.5 mL of Ysi His-tag SPA beads (vortex well before taking) were mixed together. For each additional 384-well plate, an additional 3.5 mL of 2×SPA buffer w/o EDTA, 2.1 mL of H2O, and 1.4 mL of Ysi His-tag SPA beads were mixed together. […]

T1 sequence (Q13133 whole entry): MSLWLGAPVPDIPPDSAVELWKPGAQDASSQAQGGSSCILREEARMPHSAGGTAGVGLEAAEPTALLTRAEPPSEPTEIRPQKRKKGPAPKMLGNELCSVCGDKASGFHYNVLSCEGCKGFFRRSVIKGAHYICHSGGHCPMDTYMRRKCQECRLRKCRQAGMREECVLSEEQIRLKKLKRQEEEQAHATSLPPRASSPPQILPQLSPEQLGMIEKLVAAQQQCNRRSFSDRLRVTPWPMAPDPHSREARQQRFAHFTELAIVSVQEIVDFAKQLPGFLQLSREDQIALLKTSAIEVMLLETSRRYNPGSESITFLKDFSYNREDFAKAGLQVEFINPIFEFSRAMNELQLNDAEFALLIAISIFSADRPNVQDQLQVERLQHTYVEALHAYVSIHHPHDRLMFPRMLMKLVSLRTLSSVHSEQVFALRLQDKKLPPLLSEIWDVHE
T1 sequence (P19793 whole entry, further chain): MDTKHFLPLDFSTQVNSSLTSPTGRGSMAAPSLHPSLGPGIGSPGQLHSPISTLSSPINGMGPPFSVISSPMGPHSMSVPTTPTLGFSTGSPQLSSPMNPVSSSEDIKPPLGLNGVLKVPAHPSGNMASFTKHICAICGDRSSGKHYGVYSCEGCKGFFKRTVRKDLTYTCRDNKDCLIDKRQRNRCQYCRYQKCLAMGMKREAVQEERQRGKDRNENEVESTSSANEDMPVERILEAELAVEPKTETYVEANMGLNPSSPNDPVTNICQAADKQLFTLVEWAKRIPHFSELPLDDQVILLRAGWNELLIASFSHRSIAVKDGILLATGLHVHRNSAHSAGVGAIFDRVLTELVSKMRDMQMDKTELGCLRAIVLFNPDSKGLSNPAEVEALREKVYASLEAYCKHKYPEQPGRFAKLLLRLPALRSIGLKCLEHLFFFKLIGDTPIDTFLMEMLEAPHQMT

SMILES | Ki
Cc1ccc(Cn2c(C#CC(C)(C)O)cc3ccccc3c2=O)c(C)c1 [2-(2,4-dimethylbenzyl)-3-(3-hydroxy-3-methylbut-1-ynyl)-2H-isoquinolin-1-one] | > 0.5 µM
Cc1ccc(Cn2c(-c3ccc(Oc4ccccc4)cc3)cc3ccccc3c2=O)c(C)c1 [2-(2,4-dimethylbenzyl)-3-(4-phenoxyphenyl)-2H-isoquinolin-1-one] | 0.01 to 0.15 µM
Cc1cccc(-c2cc3ccccc3c(=O)n2Cc2ccc(C)cc2C)c1 [2-(2,4-dimethylbenzyl)-3-m-tolyl-2H-isoquinolin-1-one] | 0.15 to 0.5 µM
Cc1ccc(Cn2c(-c3ccsc3)cc3ccccc3c2=O)c(C)c1 [2-(2,4-dimethylbenzyl)-3-thiophen-3-yl-2H-isoquinolin-1-one] | > 0.5 µM
Cc1cccc(-c2cc3ccccc3c(=O)n2Cc2ccccc2)c1 [2-benzyl-3-m-tolyl-2H-isoquinolin-1-one] | > 0.5 µM
O=c1c2c(Cl)cccc2cc(-c2cc(-c3cc(C(F)(F)F)cc(C(F)(F)F)c3)co2)n1Cc1ccc(F)cc1F [3-[4-(3,5-bis-trifluoromethylphenyl)furan-2-yl]-8-chloro-2-(2,4-difluorobenzyl)-2H-isoquinolin-1-one] | 0.15 to 0.5 µM
Nc1ccc(-c2coc(-c3cc4cccc(Cl)c4c(=O)n3Cc3ccc(F)cc3F)c2)cc1C(F)(F)F [3-[4-(4-amino-3-trifluoromethylphenyl)furan-2-yl]-8-chloro-2-(2,4-difluorobenzyl)-2H-isoquinolin-1-one] | 0.01 to 0.15 µM
O=c1c2c(Cl)cccc2cc(-c2ccc(Oc3ccccc3)cc2)n1Cc1ccc(F)cc1F [8-chloro-2-(2,4-difluorobenzyl)-3-(4-phenoxyphenyl)-2H-isoquinolin-1-one] | 0.01 to 0.15 µM
O=c1c2c(Cl)cccc2cc(-c2ccc(Oc3cnccn3)cc2)n1Cc1ccc(F)cc1F [8-chloro-2-(2,4-difluorobenzyl)-3-[4-(pyrazin-2-yloxy)phenyl]-2H-isoquinolin-1-one] | 0.01 to 0.15 µM
CS(=O)(=O)c1ccc(-c2ccc(-c3cc4cccc(Cl)c4c(=O)n3Cc3ccc(F)cc3F)s2)cc1 [8-chloro-2-(2,4-difluorobenzyl)-3-[5-(4-methanesulfonylphenyl)thiophen-2-yl]-2H-isoquinolin-1-one] | 0.01 to 0.15 µM
O=c1c2c(Cl)cccc2cc(-c2ccc(Oc3ccccc3)cc2)n1CC1CCCCC1 [8-chloro-2-cyclohexylmethyl-3-(4-phenoxyphenyl)-2H-isoquinolin-1-one] | 0.01 to 0.15 µM
O=c1c2c(Cl)cccc2cc(-c2ccc(Oc3ccccc3)cc2)n1Cc1cccs1 [8-chloro-3-(4-phenoxyphenyl)-2-thiophen-2-ylmethyl-2H-isoquinolin-1-one] | 0.01 to 0.15 µM
CCOc1ccc(-c2csc(-c3cc4cccc(Cl)c4c(=O)n3Cc3ccc(F)cc3F)c2)cc1Cl [8-chloro-3-[4-(3-chloro-4-ethoxyphenyl)thiophen-2-yl]-2-(2,4-difluorobenzyl)-2H-isoquinolin-1-one] | > 0.5 µM
Cc1ccc(Cn2c(-c3ccc(Oc4ccccc4)cc3)cc3cccc(C)c3c2=O)cc1 [8-methyl-2-(4-methylbenzyl)-3-(4-phenoxyphenyl)-2H-isoquinolin-1-one] | 0.01 to 0.15 µM

Source: patent US7265131B2, “Isoquinolinone derivatives and their use as therapeutic agents” (Exelixis, Inc., priority 2002, dated 2007)
